The record followed here is patent US20260315434A1, “USE OF GUAIACOL SESQUITERPENE LACTONE DERIVATIVES” (NANJING UNIVERSITY OF CHINESE MEDICINE, priority 2023, published 2026).

Series [1] deals with inflammatory cytokines (TNF, IL-6, IL-1) in lung tissue. Briefly: LPS-induced sepsis, lung inflammatory factor mRNA (Q-PCR). Particulars: for Il1 mRNA expression, lung: LPS 19.01; for Il6 mRNA expression, lung: LPS 20.34; for Tnf mRNA expression, lung: Normal = 1.00, LPS 10.92.
Excerpt: (§5) They were acclimated for 7 days before experimentation.
(§6) The normal and model groups received equal volumes of solvent (0.5% CMC-Na) via oral gavage.
(§7) Specimen Collection: One hour after the final drug administration, mice were euthanized by cervical dislocation. The abdominal cavity was opened, and the lungs, liver, and kidneys were removed. These organs were rinsed twice with pre-chilled PBS. Tissue samples were excised from the mouse lungs, left hepatic lobe, and kidneys. […] Remaining tissues were stored at −70° C. for future use.
(§8) Accurately weigh 20 mg of kidney, lung, and liver tissue. Rinse with pre-chilled PBS solution, cut into small pieces using ophthalmic scissors, and place into a glass homogenizer. Add 1 mL of Trizol reagent and grind to prepare tissue homogenate. Transfer the homogenate to a RNAse-free 1.5 mL EP tube and lyse on ice for 10 min. Add 200 μL chloroform, vortex vigorously, and let stand on ice for 3-5 min. Centrifuge at 12,000 rpm and 4° C. for 15 min. Carefully transfer the supernatant to a new RNAse-free 1.5 mL EP tube. Add an equal volume of pre-chilled isopropanol, incubate on ice for 30 min, then centrifuge at 12,000 rpm and 4° C. for 10 min. Discard the supernatant. […] Subsequently, dissolve the pellet in 10 μL DEPC-treated water. Dilute 1 μL of the total RNA solution 100-fold and measure the OD values at 260 nm and 280 nm using a full-wavelength microplate reader.
(§9) Following the method described in the kit manual, subsequent experiments were conducted using a 20 μL reverse transcription reaction system:
(§10) Primers were designed based on the nucleotide sequence of the mouse in GenBank and synthesized.
(§11) Perform subsequent experiments using a 20 μL reaction system according to the kit instructions:
(§12) After adding the above reagents to micro reaction tubes, seal them with the cap and place them in the Q-PCR instrument. Set the parameters according to the following reaction conditions to perform the amplification experiment.
(§13) Record the threshold cycle (Ct) values for each group and perform calculation and analysis using the 2^−ΔΔCt method (setting the expression level of the reference gene Gapdh as 1 to correct the expression levels of the target genes).
(§14) Data Statistics: All data are presented as Means±S.E.M. Analysis of variance (ANOVA) was performed to assess the significance of differences. Groups showing significant differences in ANOVA were further compared using one-way ANOVA and Dunnett's test. A P-value <0.05 was considered statistically significant.
Series [2] relates to renal injury markers (Kim-1, Ngal) in kidney tissue. The series can be described thus: Diabetic nephropathy, renal injury marker mRNA. The series is classed as in vivo, C57/BL6J mice. Particulars: 8 weeks. The protocol: Experimental animals: C57/BL6J mice, male, 12 weeks old, purchased from GemPharmatech LLC. Production license number: SCXK(Su)2023-0009. […] Animals were acclimated for 7 days before use in experiments.
Administer streptozotocin (STZ, 50 mg/kg) via intraperitoneal injection for 5 consecutive days. After 72 hours, select mice with fasting blood glucose levels exceeding 16.7 mmol/L as model mice. […] Model mice were fed a high-fat diet (HFD) providing 60% of energy from fat for 8 weeks. After 8 weeks, gavage administration commenced.
Specimen Collection: One hour after the last drug administration, enucleate the eyeball to collect blood. Allow blood to stand at room temperature for 2 hours, then centrifuge at 3000 rpm for 20 minutes. Aspirate the serum, aliquot it, and store at −70° C. for future use. After blood collection, euthanize the mice by cervical dislocation. Open the abdominal cavity, remove the kidneys, and dissect away the perirenal fat and capsule. Store the tissue at −70° C. for future use.

The test system of series [3] is H22 cells. The series can be described thus: Antitumor efficacy combined with anti-PD-L1 monoclonal antibody, H22 xenograft. Particulars: 2 weeks; for combination with anti-PD-L1 monoclonal antibody vs. single agents, H22: 2.5 mg/kg/day i.p., result in words; for Tumor inhibition rate (%) / Tumor weight: dose 2.5 (head μmol/kg/day; text 2.5 mg/kg/day), i.p. daily, H22. The format is in vivo, Balb/c mice. As to the method: H22 cells were cultured and expanded in vitro. An appropriate number of cells in the logarithmic growth phase was resuspended in a mixture of serum-free RPMI 1640 medium and Matrigel (1:1). Under aseptic conditions, prepare a2×10^6/100 μL cell suspension. Using a syringe, inject 100 μL of the cell suspension subcutaneously into the left forelimb axilla of male Balb/c mice. […] Compounds 20 and 103 were administered daily via intraperitoneal injection, while anti-PD-L1 monoclonal antibody was administered every three days via intraperitoneal injection for a 2-week treatment period. During the treatment period, mouse body weight and tumor diameter were measured daily. At the end of the experiment, mice were euthanized by cervical dislocation, and tumors were removed and weighed. Tumor volume (TV) was calculated using the formula: TV=½×a×b^2, where a represents the longest diameter of the tumor and b represents the shortest diameter.

The test system of series [4] is serum ALT and AST. Briefly: CCl4-induced acute liver injury, serum ALT and AST. The series is classed as in vivo, C57BL/6 mice. The protocol:
(§1) They were acclimated for 7 days before use in experiments.
(§2) Mice were randomly assigned to groups. One group was arbitrarily designated as the normal group, while the remaining groups served as model group, Compound 1 group, Hydrochloride 20 group, Fumarate 21 group, and Silibinin group, with 6 mice per group. Except for the normal group receiving 10 mL olive oil/kg via injection, all other mice received 0.5 mL CCl4+9.5 mL olive oil/kg body weight via intraperitoneal injection, maintaining a CCl4 to olive oil ratio of 1:19. Starting from day 1 of modeling, Compound 1, Hydrochloride 20, and Fumarate 21 were administered orally for 3 consecutive days.
(§3) The blood was allowed to stand at room temperature for 2 hours, then centrifuged at 3000 rpm for 20 minutes. Serum was aspirated, aliquoted, and stored at −70° C. for future use. After blood collection, euthanize mice by cervical dislocation. Perform laparotomy to remove the liver. Rinse twice with pre-chilled PBS. Excise the left hepatic lobe tissue. […] Store remaining tissue at −70° C. for future use.
Serum AST and ALT Assay: Use 10 μL of each sample for testing. Determine mouse serum AST and ALT levels according to the operating manual. Measure absorbance at 510 nm using an enzyme-linked immunosorbent assay (ELISA) reader. Calculate sample concentration (U/L) based on the standard curve.
(§4) Data Statistics: All data are expressed as means f standard error of the mean (S.E.M.). Differences were analyzed for significance using analysis of variance (ANOVA). For groups showing significant differences in ANOVA, one-way ANOVA followed by Dunnett's test was performed to compare intergroup differences.

Series [5] deals with inflammatory factors (TNF, IL-6, IL-1) in liver tissue. The series can be described thus: LPS-induced sepsis, hepatic inflammatory factor mRNA (Q-PCR). Particulars: for Tnf mRNA expression, liver: LPS 8.92; for Il6 mRNA expression, liver: LPS 11.34; for Il1 mRNA expression, liver: LPS 11.52.
Excerpt: as §5, §6, §7, §8, §9, §10, §11, §12, §13, §14
Series [6] deals with inflammatory factors (TNF, IL-6, IL-1) in renal tissue. The series can be described thus: LPS-induced sepsis, renal inflammatory factor mRNA (Q-PCR). Particulars: for Tnf mRNA expression, kidney: LPS 7.30; for Il1 mRNA expression, kidney: LPS 7.99; for Il6 mRNA expression, kidney: LPS 8.80.
Excerpt: as §5, §6, §7, §8, §9, §10, §11, §12, §13, §14
For series [7], the system named is fibrosis-related factors (Acta2, Col1a1, Tgfb1) in liver tissue. Briefly: CCl4-induced acute liver injury, liver fibrosis-related factor mRNA. The series is classed as in vivo, C57BL/6 mice. Also noted: unit not given here. The protocol: as §1, §2, §3
Q-PCR Analysis: Tissue total RNA extraction, cDNA synthesis, and PCR amplification methods are identical to Example 4. Additional primer information is as follows:
as §4

The subject of series [8] is serum creatinine and blood urea nitrogen. The series can be described thus: Folic acid-induced acute kidney injury, serum creatinine and urea. Also on record: unit not given here. Particulars: folic acid acute model. The series is classed as in vivo, C57BL/6 mice. As to the method: Except for the normal group, all other mice were administered folic acid (250 mg/kg) dissolved in 0.9% NaHCO3 solution via intraperitoneal injection to establish an acute kidney injury model.
The blood was allowed to stand at room temperature for 2 hours, then centrifuged at 3000 rpm for 20 minutes. Serum was aspirated, aliquoted, and stored at −70° C. for future use. Following blood collection, euthanize mice by cervical dislocation. Perform laparotomy to remove kidneys, dissect out perirenal fat and capsules. […] Paraffin-embedded specimens undergo HE staining; remaining tissue is stored at −70° C. for future use.
Serum Creatinine (Scr) and Blood Urea Nitrogen (BUN) Level Assay: 10 μL of serum from each sample was used for creatinine and urea level detection. Samples were added sequentially strictly following the kit instructions. After incubation at 37° C., absorbance values were measured using an enzyme-linked immunosorbent assay (ELISA) reader. The concentration levels of each indicator were calculated based on the standard curve.

The nature of series [9]: Water solubility testing of compounds (HPLC). Particulars: deionized water, water, Water-solubility, 37 °C.

In brackets after ≈: the same amount, converted by molar mass.

`CN(C)C[C@@H]1C(=O)O[C@H]2[C@H]1CC[C@@]1(C)C[C@]13CC[C@@](C)(O)[C@H]23` [Compound 20]: in series [1] (1 mg/kg oral), the “Il1 mRNA expression, lung” value came to 5.22 ± 0.90; the “Il6 mRNA expression, lung” value was 7.16 ± 0.71; the “Tnf mRNA expression, lung” value worked out at 6.52 ± 0.29. Also, in series [2] (1 mg/kg gavage), the “Kim-1 mRNA expression, kidney” value was 1.68 ± 0.17 and the “Ngal mRNA expression, kidney” value is 1.38 ± 0.17. Moreover, in [2] (10 mg/kg gavage), the “Kim-1 mRNA expression, kidney” value stood at 0.64 ± 0.10 and the “Ngal mRNA expression, kidney” value was 0.96 ± 0.13. In series [3], the “combination with anti-PD-L1 monoclonal antibody vs. single agents, H22” value is “synergistic effect”; the “Tumor inhibition rate (%)” value amounted to 48.67%; the “Tumor weight” value turned out to be 0.64 ± 0.09 g. In series [4] (1 mg/kg oral), this compound displayed an ALT of 85.02 ± 15.84 U/L and an AST of 153.34 ± 27.59 U/L. Also, in series [5] (1 mg/kg oral), the “Tnf mRNA expression, liver” value was determined as 5.71 ± 0.61; the “Il6 mRNA expression, liver” value turned out to be 3.93 ± 0.90; the “Il1 mRNA expression, liver” value worked out at 3.07 ± 0.29. Also, in series [6] (1 mg/kg oral), the “Tnf mRNA expression, kidney” value was 6.20 ± 0.60; the “Il1 mRNA expression, kidney” value is 2.76 ± 0.59; the “Il6 mRNA expression, kidney” value came out at 2.43 ± 0.64. Moreover, in series [7] (1 mg/kg oral), the “Acta2 mRNA expression, liver” value amounted to 1.85 ± 0.77; the “Col1a1 mRNA expression, liver” value is given as 1.16 ± 0.26; the “Tgfb1 mRNA expression, liver” value amounted to 0.92 ± 0.21.

On to `CN(C)C[C@@H]1C(=O)O[C@H]2[C@H]1CC[C@@]1(C)C[C@]13CC[C@@](C)(O)[C@H]23` [Compound 21], for which, in [8] (0.1 mg/kg oral), the BUN turned out to be 30.08 ± 3.03 and the “Scr (serum creatinine)” value is 90.69 ± 12.83. The compound further displayed a BUN in series [8] (1 mg/kg oral) of 18.95 ± 2.58. In [8] (1 mg/kg oral, 1 mg/kg), the “Scr (serum creatinine)” value is reported as 50.39 ± 7.65. In [1] (0.1 mg/kg oral), the “Il1 mRNA expression, lung” value was 13.30 ± 0.88; the “Il6 mRNA expression, lung” value was found to be 18.40 ± 3.16; the “Tnf mRNA expression, lung” value is on record as 8.79 ± 1.18. In series [1] (1 mg/kg oral), the “Il1 mRNA expression, lung” value is 6.79 ± 0.72; the “Il6 mRNA expression, lung” value amounted to 9.10 ± 1.20; the “Tnf mRNA expression, lung” value is 8.67 ± 1.51. Further, in series [4] (0.1 mg/kg oral), the ALT stood at 132.32 ± 31.96 U/L and the AST was determined as 385.64 ± 28.70 U/L. In series [4] (1 mg/kg oral), the ALT amounted to 95.82 ± 2.72 U/L and the AST came out at 215.82 ± 63.48 U/L. Also, in series [5] (0.1 mg/kg oral), the “Tnf mRNA expression, liver” value stood at 7.78 ± 1.68; the “Il6 mRNA expression, liver” value is given as 8.96 ± 0.70; the “Il1 mRNA expression, liver” value turned out to be 10.32 ± 1.45. Further, in [5] (1 mg/kg oral), the “Tnf mRNA expression, liver” value is reported as 7.12 ± 1.12; the “Il6 mRNA expression, liver” value is 4.82 ± 0.69; the “Il1 mRNA expression, liver” value is listed as 4.22 ± 0.90. In addition, in [6] (0.1 mg/kg oral), the “Tnf mRNA expression, kidney” value came to 6.70 ± 0.80; the “Il1 mRNA expression, kidney” value worked out at 6.56 ± 0.88; the “Il6 mRNA expression, kidney” value was found to be 6.05 ± 0.19. Further, in [6] (1 mg/kg oral), the “Tnf mRNA expression, kidney” value is 6.04 ± 1.62; the “Il1 mRNA expression, kidney” value amounted to 2.82 ± 0.33; the “Il6 mRNA expression, kidney” value is on record as 2.70 ± 0.52. Further, in series [7] (0.1 mg/kg oral), the “Acta2 mRNA expression, liver” value was found to be 2.86 ± 0.26; the “Col1a1 mRNA expression, liver” value is 1.83 ± 0.53; the “Tgfb1 mRNA expression, liver” value came to 1.08 ± 0.29. Also, in series [7] (1 mg/kg oral), the “Acta2 mRNA expression, liver” value is 2.18 ± 0.42; the “Col1a1 mRNA expression, liver” value is given as 1.26 ± 0.27; the “Tgfb1 mRNA expression, liver” value is 0.88 ± 0.16.

Compound `CC1=C2CC[C@@](C)(OC(=O)N3CCCCC3)[C@@H]2[C@H]2OC(=O)[C@@H](CN(C)C)[C@@H]2CC1` [Compound 102] displayed a solubility in [9] of 132 mg/mL (≈ 328 mM).

On to `CC1=C2CC[C@@](C)(OC(=O)N3CCCC3)[C@@H]2[C@H]2OC(=O)[C@@H](CN3CCCC3)[C@@H]2CC1` [Compound 103], for which, in [8] (0.1 mg/kg oral), the BUN worked out at 23.42 ± 13.11 and the “Scr (serum creatinine)” value was 74.95 ± 21.37. Further, in series [8] (1 mg/kg oral), the BUN stood at 20.38 ± 10.82 and the “Scr (serum creatinine)” value turned out to be 73.88 ± 14.26. Moreover, in series [8] (10 mg/kg oral), the BUN was 17.72 ± 7.78 and the “Scr (serum creatinine)” value is given as 45.19 ± 7.41. Besides, in series [2] (1 mg/kg gavage), the “Kim-1 mRNA expression, kidney” value was determined as 0.98 ± 0.41 and the “Ngal mRNA expression, kidney” value amounted to 2.34 ± 0.39. Moreover, in series [2] (10 mg/kg gavage), the “Kim-1 mRNA expression, kidney” value is reported as 0.75 ± 0.24 and the “Ngal mRNA expression, kidney” value was 2.08 ± 0.34. In addition, in series [3], the “combination with anti-PD-L1 monoclonal antibody vs. single agents, H22” value is on record as “synergistic effect”; the “Tumor inhibition rate (%)” value is 41.90%; the “Tumor weight” value is on record as 0.70 ± 0.08 g. This compound also displayed a solubility in series [9] of 278 mg/mL (≈ 668 mM).

The term solubility denotes how much of the substance goes into solution per volume.
